The values that follow come from patent publication US11872261B2, “Lipoprotein targeting protease inhibitors and uses” (The United States of America, as represented by the …, priority 2016, dated 2024).

Assay [1] in a line: Clinical pilot study: lipoprotein particle numbers by nuclear magnetic resonance. In kind it is in vivo, human. Conditions: 20 mg/day, 28 days vs baseline. How it is done:
FIG. 1A-1C. Effect of rosuvastatin on plasma lipids and lipoprotein particle numbers. (FIG. 1A) Rosuvastatin effects on total plasma lipid levels (TC=total cholesterol; HDL-C=HDL cholesterol; LDL-C=LDL cholesterol; TG=triglyceride). The effect of rosuvastatin on LDL particle number (FIG. 1B) and HDL particle number (FIG. 1C) were measured by nuclear magnetic resonance. T0 and […] are time points indicating baseline and after 28 days of rosuvastatin treatment, respectively. Data are mean±standard deviation. * indicates p<0.01. Fasting blood samples were obtained from ten healthy volunteers participating in a study of the NIH Center for Human Immunology, intended to evaluate effects of a statin on the immune system. This protocol was approved by the institutional review board of the National Heart, Lung, and Blood Institute (NHLBI) and registered at clinicaltrials.gov (NCT01200836); all participants provided written informed consent. Three males and seven females were enrolled, with an average age of 44.1±11 years. Participants were selected to have normal LDL-C (<130 mg/dL) and were not on any lipid modification therapy prior to the study. […] HDL-C was measured by a direct assay (Siemens) and LDL-C was determined by the Friedewald equation. Lipoprotein particle numbers and average particle sizes were determined from heparinized plasma on a […] […]

The test system of assay [2] is alpha-1-antitrypsin (A1AT). The experiment in a line: ELISA of A1AT in large HDL fraction and in plasma. In kind it is in vivo, human. An excerpt: FIG. 5A-5C. Quantitative measurement of alpha-1-antitrypsin on HDL and in plasma. (FIG. 5A) Individual patient spectral counts for alpha-1-antitrypsin (A1AT) in large HDL at baseline (T0) and after 28 days (T28) of rosuvastatin treatment, n=10 for each time point. The “n=5” indicator points to data from 5 subjects with a high degree of overlap. (FIG. 5B) Quantitative measurement of A1AT in large HDL by ELISA assay. (FIG. 5C) Time course of plasma A1AT concentrations during rosuvastatin treatment and after two-week washout period (Day 42 time point). * indicates p<0.05 and ** indicates p<0.01 compared to T0.
To more quantitatively evaluate the change in A1AT levels observed in the MS data, we performed ELISA assays to measure A1AT in the large HDL fractions from all subjects.
In addition to measuring the A1AT content of large HDL, we also measured total A1AT in plasma. There was a clear trend of increasing plasma A1AT while on treatment and a return to baseline after a two week treatment washout, this effect was relatively small, approximately 10% (FIG. 5c). […] We calculated an A1AT:HDL-particle ratio (mol:mol) of about 1:100 at baseline and 1:25 after rosuvastatin treatment.

Molecules are shown by their SMILES.

For `CC(C)c1nc(N(C)S(C)(=O)=O)nc(-c2ccc(F)cc2)c1/C=C/[C@@H](O)C[C@@H](O)CC(=O)O` [rosuvastatin], the “increase of HDL-p” value in assay [1] (not statistically significant) is 6.2%. Further, the “reduction of LDL particle number (LDL-p)” value in assay [1] (p<0.001) is reported as 51%. Also, in assay [2] (ELISA, high responders, range), the “elevation of A1AT in large HDL fraction, high responders” value is on record as 5-18 fold. The “increase in A1AT levels in large HDL fraction, low-responders” value in assay [2] (ELISA, low-responders, range) is recorded as 6-36%. Moreover, the “average increase in HDL-L associated A1AT by ELISA” value in assay [2] (HDL-L, 28 days vs baseline, all subjects) is 5.7 fold. Moreover, the “fraction of total A1AT bound to HDL after therapy” value in assay [2] (estimated from A1AT content of HDL-L and plasma, baseline 0.84±0.037%) is given as “approximately 4.54±1.73%”. Also, the “increase of total plasma A1AT while on treatment” value in assay [2] (plasma, return to baseline after two week washout) was “approximately 10%”.
